Assay results published in US5744444A, “HPTH-fragment-(1-37), the preparation thereof, medicaments containing same and the use thereof” (HaemoPep Pharma GmbH, priority 1989, dated 1998).

Tests used:
[1] = tested on: hPTH-(53-84)-RIA; conditions: synthetic hPTH peptides; data provided by the producer (Immundiagnostik); cited from earlier work
[2] = tested on: hPTH-(44-68)-RIA; conditions: synthetic hPTH peptides; data provided by the producer (Immundiagnostik); cited from earlier work
[3] = secondary structure by UV circular dichroism; format: physicochemical; conditions: 50 μg/ml, 10 mM Tris-HCl buffer pH 7.5, room temperature, 190-240 nm; calculated by the method of Reed and Kinzel
Experimental: The circular dichroism was measured by means of a Jasco J-500 Automatic Recording Spectropolarimeter coupled with a Jasco DP-500 Data Processor. For the determination of the secondary structure, the measurement was carried out in the spectral range of from 190 nm to 240 nm at room temperature in a selected quartz cuvette at a light path of 1 mm. The parathormone concentrations employed were 50 μg/ml of hPTH-(1-33), 50 μg/ml of hPTH-(1-37) and 50 μg/ml of hPTH-(1-38). 10 mM Tris-HCl buffer pH 7.5 was used for dissolution (other conditions of the measurement: Sensitivity 2 milli-degrees/cm; time constant 2 seconds; recorder speed: 4 nm/min; wave length expansion: 5 nm/cm). The curves in FIG. 13 for hPTH-(1-33) hPTH-(1-37) and hPTH-(1-38) are average values for the signals from 4 subsequent measurements minus the base line values.
The evaluation for determining the secondary structure was performed in accordance with the method described by Reed and Kinzel (Biochemistry 23, 1357-1362, 1984).

hPTH-(28-48): synthetic hPTH peptide tested for cross-reaction in the RIAs (LQDVHNFVALGAPLAPRDAGS; Parathyroid hormone; UniProt P01270 59-79, looked up, fragment)
cross-reaction in the hPTH-(53-84)-RIA [1]: do not show any cross-reaction
cross-reaction in the hPTH-(44-68)-RIA [2]: do not show any cross-reaction

hPTH-(53-84): synthetic hPTH peptide, standard of the C-terminal RIA (KKEDNVLVESHEKSLGEADKADVNVLTKAKSQ; Parathyroid hormone; UniProt P01270 84-115, looked up, fragment)
cross-reaction in the hPTH-(44-68)-RIA [2]: 100%

hPTH-(44-68): synthetic hPTH peptide, standard of the medium-regional RIA (RDAGSQRPRKKEDNVLVESHEKSLG; Parathyroid hormone; UniProt P01270 75-99, looked up, fragment)
cross-reaction in the hPTH-(53-84)-RIA [1]: do not show any cross-reaction

hPTH-(1-38): known synthetic amino-terminal partial sequence of human PTH, comparison peptide (SVSEIQLMHNLGKHLNSMERVEWLRKKLQDVHNFVALG; Parathyroid hormone; UniProt P01270 32-69, looked up, fragment)
α-helix proportion of the secondary structure [3]: about 27%

hPTH-(1-33): synthetic N-terminal human PTH fragment, comparison peptide (SVSEIQLMHNLGKHLNSMERVEWLRKKLQDVHN; Parathyroid hormone; UniProt P01270 32-64, looked up, fragment)
α-helix proportion of the secondary structure [3]: similarly low as in hPTH-(1-38)

hPTH-(1-34): known synthetic amino-terminal partial sequence of human PTH (SVSEIQLMHNLGKHLNSMERVEWLRKKLQDVHNF; Parathyroid hormone; UniProt P01270 32-65, looked up, fragment)
cross-reaction in the hPTH-(53-84)-RIA [1]: do not show any cross-reaction
cross-reaction in the hPTH-(44-68)-RIA [2]: do not show any cross-reaction

hPTH-(64-84): synthetic hPTH peptide tested for cross-reaction in the RIAs (EKSLGEADKADVNVLTKAKSQ; Parathyroid hormone; UniProt P01270 95-115, looked up, fragment)
cross-reaction in the hPTH-(53-84)-RIA [1]: 100%
cross-reaction in the hPTH-(44-68)-RIA [2]: do not show any cross-reaction

B1: hPTH-(1-84): the secreted PTH molecule consisting of 84 amino acids (peptide, UniProt P01270 32-115, looked up)
Parathyroid hormone: SVSEIQLMHNLGKHLNSMERVEWLRKKLQDVHNFVALGAPLAPRDAGSQRPRKKEDNVLVESHEKSLGEADKADVNVLTKAKSQ
modifications: Parathyroid hormone
notes: the secreted PTH molecule consisting of 84 amino acids
cross-reaction in the hPTH-(53-84)-RIA [1]: 100%
cross-reaction in the hPTH-(44-68)-RIA [2]: 100%
